According to patent US8580773B2, “Small-molecule inhibitors of the androgen receptor” (The Regents of the University of California, priority 2008, dated 2013):
“Also recorded” adds a separate entry of the source. Where a name gives a salt, the structure may show the parent alone.

Tests used:
AR = biological target: T1, AR (Homo sapiens, UniProt P10275, T878A); test: DHT titration against inhibitor, PSA-luciferase reporter in LNCaP cells (competitive vs non-competitive); assay type: cell-based; conditions: moderate dose of inhibitor, DHT titrated, hydrochloride
T1 construct: that each express endogenous AR; endogenous in cells; host or cells: LNCaP

LNCaP cells = test: Cell proliferation (DNA content, DAPI) in LNCaP cells; assay type: cell-based, human; conditions: 3 nM DHT, PP 100 nM, HH 100 nM, BiC 1 μM, seven days, hydrochloride
Source text: LN-AR cells were created by retroviral infection of a high-expressing AR vector into LNCaP cells, and proliferate independent of androgen in cell culture, unlike their parental line (Chen, C. D., et al., Molecular determinants of resistance to antiandrogen therapy. Nat Med, 2004. 10(1): p. 33-9). HEK293 cells were used as a control. Cells were transferred to charcoal-stripped media two days before they were split and plated in quadruplicate at a density of approximately 20,000 cells/well in 48-well plates. […] Media were changed every day, using a single preparation to ensure consistent compound concentrations. Proliferation was determined by measuring the DNA content of the cells in each well. Each day, the cells in four wells were fixed in 100% cold methanol, followed by staining for 5 min at RT with 0.2 ng/mL 4′,6-diamidino-2-phenylindole (DAPI) in PBS. The cells were washed once in PBS, then read on a fluorescence plate reader using 365/439 excitation/emission wavelengths. LAPC4 and LNCaP cells proliferated to a much greater degree in the presence of DHT, while LN-AR cells proliferated in the presence and absence of DHT.

human androgen receptor = biological target: T2, human androgen receptor (Homo sapiens, UniProt P10275); test: Screen of 1040 FDA-approved drugs and natural products for AR antagonists (MMTV-luciferase transcription assay and C-AR-Y FRET conformation assays); assay type: cell-based; conditions: test compounds at 10 μM, 10 nM DHT, 24 hours; validated by dose-response
T2 construct: expressed in transfected cells; host or cells: HEK293 and LAPC4 stably expressing C-AR-Y; HEK293 transiently transfected with native AR
T2 sequence (P10275 1-920): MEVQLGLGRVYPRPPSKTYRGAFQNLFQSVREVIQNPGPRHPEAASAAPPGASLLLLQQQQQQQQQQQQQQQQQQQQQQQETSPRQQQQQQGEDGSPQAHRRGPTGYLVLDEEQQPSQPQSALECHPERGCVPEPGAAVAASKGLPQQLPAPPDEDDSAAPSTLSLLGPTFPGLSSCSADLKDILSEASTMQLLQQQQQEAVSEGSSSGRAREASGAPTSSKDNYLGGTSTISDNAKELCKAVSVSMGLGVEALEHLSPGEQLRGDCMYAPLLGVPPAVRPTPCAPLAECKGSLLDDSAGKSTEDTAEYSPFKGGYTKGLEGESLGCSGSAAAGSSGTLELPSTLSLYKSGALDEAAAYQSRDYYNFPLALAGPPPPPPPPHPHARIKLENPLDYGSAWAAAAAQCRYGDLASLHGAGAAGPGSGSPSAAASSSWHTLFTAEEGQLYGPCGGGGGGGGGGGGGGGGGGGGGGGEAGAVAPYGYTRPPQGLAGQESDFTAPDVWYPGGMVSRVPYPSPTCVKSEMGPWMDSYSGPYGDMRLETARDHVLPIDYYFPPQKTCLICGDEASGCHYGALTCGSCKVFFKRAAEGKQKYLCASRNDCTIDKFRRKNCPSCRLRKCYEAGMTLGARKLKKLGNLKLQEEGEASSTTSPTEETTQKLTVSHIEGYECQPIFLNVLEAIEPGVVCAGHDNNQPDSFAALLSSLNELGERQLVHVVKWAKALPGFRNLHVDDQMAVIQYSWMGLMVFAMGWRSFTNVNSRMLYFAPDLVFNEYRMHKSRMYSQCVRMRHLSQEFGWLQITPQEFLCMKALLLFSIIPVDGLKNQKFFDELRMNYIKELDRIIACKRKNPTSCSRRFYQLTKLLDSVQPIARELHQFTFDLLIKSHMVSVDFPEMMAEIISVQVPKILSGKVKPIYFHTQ
Protocol: A library assembled by the NINDS was screened. The library consisted of 1040 FDA-approved drugs and natural products. A basic strategy to select and compare compounds from each of the primary screens was established (FIG. 1).
The transcription assay was conducted by transfecting 10 cm plates of HEK293 cells with plasmids encoding MMTV-luciferase, SV40-renilla luciferase, and native AR. […] FRET is fluorescence resonance energy transfer between cyan and yellow fluorescent protein derivatives (CFP, YFP) that are fused to the amino and carboxyl termini of the human androgen receptor. When ligand activates the receptor, a conformational change takes place that brings the CFP and YFP into close proximity, thereby allowing FRET to occur. This spectroscopic change is detected using a fluorescence plate reader.
For the transcription assay, transfected cells were pooled before being plated into 96-well dishes with the test compounds at 10 μM. […] Cell and compound transfers were accomplished with a liquid handling robot. Cells were cultured for 24 hours in the presence of 10 nM DHT and the test compounds. After 24 hours, cells were either lysed by freeze-thaw (transcription assay), or fixed in 4% paraformaldehyde for reading on the FPR (FRET assays). Each compound was tested in duplicate in the initial screen.
The compounds were sorted on the basis of anti-androgen effects. […] This eliminated situations in which one test gave a strong response, and the replicate had none. […] For the FRET assays, toxic compounds were easily detected because of their effect on raw CFP and YFP signal, and compounds that reduced this signal below two standard deviations were eliminated.
The top 50 compounds identified in each primary assay were then tested in the other two assays.

T1 sequence (P10275 whole entry T878A): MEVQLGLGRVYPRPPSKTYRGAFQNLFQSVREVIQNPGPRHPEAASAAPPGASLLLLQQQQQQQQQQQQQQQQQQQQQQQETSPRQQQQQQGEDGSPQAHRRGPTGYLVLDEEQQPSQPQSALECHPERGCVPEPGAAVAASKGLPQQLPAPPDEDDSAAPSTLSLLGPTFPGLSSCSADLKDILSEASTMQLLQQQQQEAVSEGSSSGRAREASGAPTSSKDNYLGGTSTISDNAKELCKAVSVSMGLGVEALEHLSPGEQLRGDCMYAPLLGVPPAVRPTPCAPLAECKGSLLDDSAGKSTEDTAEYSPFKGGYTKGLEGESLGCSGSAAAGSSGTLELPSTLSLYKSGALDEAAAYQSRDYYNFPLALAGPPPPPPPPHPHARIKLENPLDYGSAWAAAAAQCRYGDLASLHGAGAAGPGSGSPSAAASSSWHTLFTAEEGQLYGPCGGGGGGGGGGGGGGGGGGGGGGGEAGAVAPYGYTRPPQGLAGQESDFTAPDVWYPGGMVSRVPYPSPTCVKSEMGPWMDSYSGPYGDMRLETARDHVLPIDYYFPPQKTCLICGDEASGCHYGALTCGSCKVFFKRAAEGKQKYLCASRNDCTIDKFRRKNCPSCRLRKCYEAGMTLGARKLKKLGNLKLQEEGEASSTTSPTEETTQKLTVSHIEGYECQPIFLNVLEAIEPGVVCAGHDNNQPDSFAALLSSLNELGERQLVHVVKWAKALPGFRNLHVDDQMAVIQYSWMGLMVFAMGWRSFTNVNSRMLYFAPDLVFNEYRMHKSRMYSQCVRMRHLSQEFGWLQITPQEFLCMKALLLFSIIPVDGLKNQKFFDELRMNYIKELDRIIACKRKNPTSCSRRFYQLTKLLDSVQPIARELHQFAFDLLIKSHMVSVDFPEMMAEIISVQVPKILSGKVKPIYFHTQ

Cc1nccc2c1[nH]c1cc(O)ccc12 [HH, harmol hydrochloride]
Mode of antagonism on DHT titration (AR): inhibited maximal DHT-induced activation; also recorded: consistent with a non-competitive antagonist
Inhibition of cell growth (LNCaP cells): inhibited significantly; also recorded: growth-inhibitory properties
Anti-androgen activity in screen (human androgen receptor): previously unrecognized anti-androgen activity
